Results as given in ChEMBL document CHEMBL5215006, “Antitumor Activity of Piceamycin by Upregulation of N-Myc Downstream-Regulated Gene 1 in Human Colorectal Cancer Cells” (J Nat Prod, 2022).
Active and inactive are the calls of the source. The calls are words filed in the database; no cut-off is given here.

What was measured:
[1] = system: HCT-116; assay: Antimigratory activity against highly liver metastatic human HCT-116 cells assessed as upregulation of NDRG1 protein expression at 0.075 to 0.3 uM incubated for 24 hrs by immunoblotting assay; type: functional, cell-based; details: dose 0.075-0.3 µM
[2] = system: SW480; assay: Cell cycle arrest in human SW480 cells assessed as accumulation at G0/G1 phase at 1.4 uM incubated upto 48 hrs by RNaseA/propidium iodide staining based flow cytometry; type: functional
[3] = system: HCT-116; assay: Antitumor activity against human HCT-116 cells xenografted Balb/c mouse assessed as increase in NDRG1 protein expression at 3 mg/kg,ip administrated for 18 days by 3 times per week by immunoblotting assay; type: functional, organism-based; details: time 18.0 day
[4] = system: HCT-116; assay: Cell cycle arrest in human HCT-116 cells assessed as accumulation at S phase at 0.075 uM incubated for 24 hrs by RNaseA/propidium iodide staining based flow cytometry (reference value: 19.94 %); type: functional
[5] = system: SW480; assay: Anti-migratory activity against human SW480 cells assessed as upregulation of E-cadherin protein expression at 0.35 to 1.4 uM incubated for 24 hrs by immunoblotting assay; type: functional, cell-based; details: dose 0.35-1.4 µM
[6] = system: SW480; assay: Cell cycle arrest in human SW480 cells assessed as accumulation at Sub-G1 phase at 0.35 uM incubated for 24 hrs by RNaseA/propidium iodide staining based flow cytometry (reference value: 3.2 %); type: functional
[7] = system: SW480; assay: Cell cycle arrest in human SW480 cells assessed as accumulation at G0/G1 phase at 0.35 uM incubated for 24 hrs by RNaseA/propidium iodide staining based flow cytometry (reference value: 54.49 %); type: functional
[8] = system: HCT-116; assay: Antitumor activity against human HCT-116 cells xenografted Balb/c mouse assessed as increase in NDRG1 protein expression at 1 mg/kg,ip administrated for 18 days by 3 times per week by immunoblotting assay; type: functional, organism-based; details: time 18.0 day
[9] = system: HCT-116; assay: Anti-migratory activity against human HCT-116 cells assessed as downregulation of Snail gene expression at 0.075 to 0.3 uM incubated for 24 hrs by RT-PCR assay; type: functional, cell-based; details: dose 0.075-0.3 µM
[10] = system: HCT-116; assay: Cell cycle arrest in human HCT-116 cells assessed as accumulation at G0/G1 phase at 0.075 uM incubated for 24 hrs by RNaseA/propidium iodide staining based flow cytometry (reference value: 48.44 %); type: functional
[11] = system: SW480; assay: Induction of apoptosis in human SW480 cells assessed as viable cells at 0.35 uM incubated for 48 hrs by Annexin V-FITC/PI staining based flow cytometry analysis (Rvb= 92.6%); type: functional; details: read-out: Activity
[12] = system: HCT-116; assay: Anti-migratory activity against human HCT-116 cells assessed as upregulation of E-cadherin gene expression at 0.075 to 0.3 uM incubated for 24 hrs by RT-PCR assay; type: functional, cell-based; details: dose 0.075-0.3 µM
[13] = system: HCT-116; assay: Induction of apoptosis in human HCT-116 cells assessed as necrotic cells at 0.3 uM incubated for 48 hrs by Annexin V-FITC/PI staining based flow cytometry analysis (Rvb= 0.13%); type: functional
[14] = system: SW480; assay: Induction of apoptosis in human SW480 cells assessed as downregulation of survivin expression at 1.4 uM measured at 12 to 48 hrs by immunoblotting assay; type: functional, cell-based; details: time 12-48 hrs, TDE = time-dependent effect
[15] = system: HCT-116; assay: Antimigratory activity against highly liver metastatic human HCT-116 cells assessed as upregulation of E-cadherin protein expression at 0.075 to 0.3 uM incubated for 24 hrs by immunoblotting assay; type: functional, cell-based; details: dose 0.075-0.3 µM
[16] = system: HCT-116; assay: Cell cycle arrest in human HCT-116 cells assessed as accumulation at S phase at 0.15 uM incubated for 24 hrs by RNaseA/propidium iodide staining based flow cytometry (reference value: 19.94 %); type: functional
[17] = system: HCT-116; assay: Cell cycle arrest in human HCT-116 cells assessed as accumulation at Sub-G1 phase at 0.15 uM incubated for 24 hrs by RNaseA/propidium iodide staining based flow cytometry (reference value: 3.66 %); type: functional
[18] = system: SW480; assay: Cell cycle arrest in human SW480 cells assessed as downregulation of cyclin-D1 protein expression at 0.35 to 1.4 uM incubated for 24 hrs by immunoblotting assay; type: functional, cell-based; details: dose 0.35-1.4 µM
[19] = system: HCT-116; assay: Induction of apoptosis in human HCT-116 cells assessed as late apoptotic cells at 0.075 uM incubated for 48 hrs by Annexin V-FITC/PI staining based flow cytometry analysis (Rvb= 3.18%); type: functional
[20] = system: SW480; assay: Anti-migratory activity against human SW480 cells assessed as upregulation of E-cadherin gene expression at 0.35 to 1.4 uM incubated for 24 hrs by RT-PCR assay; type: functional, cell-based; details: dose 0.35-1.4 µM
[21] = system: SW480; assay: Induction of apoptosis in human SW480 cells assessed as viable cells at 0.7 uM incubated for 48 hrs by Annexin V-FITC/PI staining based flow cytometry analysis (Rvb= 92.6%); type: functional; details: read-out: Activity
[22] = system: HCT-116; assay: Downregulation of cleaved PARP protein expression in human HCT-116 cells with NDRG1 knockdown at 0.3 uM incubated for 24 hrs by immunoblotting assay; type: functional, cell-based
[23] = system: HCT-116; assay: Induction of apoptosis in human HCT-116 cells assessed as upregulation of cleaved PARP expression at 0.3 uM measured at 12 to 48 hrs by immunoblotting assay; type: functional, cell-based; details: time 12-48 hrs, TDE = time-dependent effect
[24] = system: SW480; assay: Antitumor activity against human SW480 cells assessed as upregulation of NDRG1 gene expression at 0.35 to 1.4 uM incubated for 24 hrs by RT-PCR method; type: functional, cell-based; details: dose 0.35-1.4 µM, DDE = dose-dependent effect
[25] = system: SW480; assay: Cell cycle arrest in human SW480 cells assessed as accumulation at G2/M phase at 1.4 uM incubated for 24 hrs by RNaseA/propidium iodide staining based flow cytometry (reference value: 24.74 %); type: functional
[26] = system: HCT-116; assay: Downregulation of c-Myc protein expression in human HCT-116 cells at 0.3 uM incubated for 24 hrs by immunoblotting assay; type: functional, cell-based
[27] = system: HCT-116; assay: Induction of apoptosis in human HCT-116 cells assessed as early apoptotic cells at 0.075 uM incubated for 48 hrs by Annexin V-FITC/PI staining based flow cytometry analysis (Rvb= 2.51%); type: functional
[28] = system: SW480; assay: Cell cycle arrest in human SW480 cells assessed as accumulation at Sub-G1 phase at 1.4 uM incubated for 24 hrs by RNaseA/propidium iodide staining based flow cytometry (reference value: 3.2 %); type: functional
[29] = system: HCT-116; assay: Cell cycle arrest in human HCT-116 cells assessed as accumulation at G0/G1 phase at 0.15 uM incubated for 24 hrs by RNaseA/propidium iodide staining based flow cytometry (reference value: 48.44 %); type: functional
[30] = system: HCT-116; assay: Anti-migratory activity against highly liver metastatic human HCT-116 cells assessed as reduction in migration to 0.075 to 0.3 uM incubated for 24 hrs by wound healing assay; type: functional, cell-based; details: dose 0.075-0.3 µM, DDE = dose-dependent effect
[31] = system: HCT-116; assay: Cell cycle arrest in human HCT-116 cells assessed as accumulation at G0/G1 phase at 0.3 uM incubated for 24 hrs by RNaseA/propidium iodide staining based flow cytometry (reference value: 48.44 %); type: functional
[32] = system: HCT-116; assay: Cell cycle arrest in human HCT-116 cells assessed as downregulation of cyclin-D1 protein expression at 0.075 to 0.3 uM incubated for 24 hrs by immunoblotting assay; type: functional, cell-based; details: dose 0.075-0.3 µM
[33] = Toxicity in Balb/c mouse xenografted with human HCT-116 cells assessed as body weight change at 3 mg/kg,ip administrated for 18 days by 3 times per week; type: organism-based; details: in vivo, 432 h, time 18 day

C[C@@H]1\C=C/C=C/C=C\C=C\C=C\C(=O)C2=C(O)C(=O)C[C@@]2(C)/C=C/C=C\C=C/C(=O)NC1
Activity [1]: Active | Activity [2]: Active | Activity [3]: Active | Activity [4]: 18.4% | Activity [5]: Active | Activity [6]: 5.1% | Activity [7]: 54.89% | Activity [8]: Active | Activity [9]: Active | Activity [10]: 48.48% | viability at 0.35 µM [11]: 93% | Activity [12]: Active | Activity [13]: 0.18% | Activity [14]: Tde | Activity [15]: Active | Activity [16]: 11.41% | Activity [17]: 5.1% | Activity [18]: Active | Activity [19]: 6.71% | Activity [20]: Active | viability at 0.7 µM [21]: 69.8% | Activity [22]: Active | Activity [23]: Tde | Activity [24]: Dde | Activity [25]: 19.26% | Activity [26]: Active | Activity [27]: 8.29% | Activity [28]: 4.98% | Activity [29]: 55.55% | Activity [30]: Dde | Activity [31]: 62.85% | Activity [32]: Active | Activity [33]: Non-Toxic
